Literature values in patent US20160166510A1, “STABILIZED PROLONGED RELEASE PHARMACEUTICAL COMPOSITION COMPRISING ATYPICAL ANTIPSYCHOTIC” (INVENTIA HEALTHCARE PRIVATE LIMITED, priority 2010, published 2016).
Like-named read-outs stand apart in the source and are kept apart here.

## Cc1nc2n(c(=O)c1CCN1CCC(c3noc4cc(F)ccc34)CC1)CCCC2O (stereo not drawn) [Paliperidone]
In 0.1 N HCl
  Solubility: sparingly soluble
In methylene chloride
  Solubility: sparingly soluble
In water
  Solubility: practically insoluble
